According to patent US8247211B2, “Glycopeptide antibiotics” (American Cyanamid Company, priority 2001, dated 2012):
Converted amounts (≈) assume the structure as drawn.

Legend:
Experiment in all cases: In vitro antibacterial evaluation: minimum inhibitory concentration (MIC), broth dilution method
Type in all cases: cell-based
Enterococcus sp. = settings: 18 hours at 35° C.
Experimental: (§1) The minimum inhibitory concentration (MIC), the lowest concentration of the antibiotic which inhibits growth of the test organism, is determined by the broth dilution method using Muller-Hinton II […] (Baltimore Biological Laboratories) following the recommendations of the National Committee for Clinical Laboratory Standards [Methods for dilution antimicrobial susceptibility tests for bacteria that grow aerobically, approved standard M7-A2, National Committee for Clinical Laboratory Standards, Villanova, Pa].
(§2) An inoculum level of 5×10^5 CFU/mL, and a range of antibiotic concentrations (64-0.06 μg/mL) is used. […] The test organisms include a spectrum of Gram-positive bacteria comprised of Staphylococcus sp., Streptococcus sp. and Enterococcus sp. These organisms include recent clinical isolates that are resistant to methicillin, penicillin and/or vancomycin.

Escherichia coli = settings: 18 hours at 35° C.
Experimental: as §1, §2

Staphylococcus sp. = system: Staphylococcus sp.
Experimental: as §1, §2

Streptococcus sp. = settings: 18 hours at 35° C.
Experimental: as §1, §2

[1] = Enterococcus faecalis (ATCC 29212)
[2] = Enterococcus faecalis (GC 2242)
[3] = Enterococcus faecalis (GC 2691)
[4] = Enterococcus faecalis (GC 4553)
[5] = Enterococcus faecalis (GC 4554)
[6] = Enterococcus faecalis (GC 6189)
[7] = broth dilution, inoculum 5×10^5 CFU/mL
[8] = Streptococcus agalactiae (GC 4564)
[9] = Streptococcus pneumoniae (ATCC 6301)
[10] = Streptococcus pneumoniae (GC 1894)
[11] = Streptococcus pyogenes (GC 4563)

## CC(c1ccccc1)C1NC(=O)CNC(=O)C(CO)NC(=O)C(C(O)C2CNC(=N)N2C2OC(CO)C(O)C(O)C2O)NC(=O)C(C(O)C2CNC(=N)N2)NC(=O)C(Cc2ccc(OC3OC(CO)C(OC4OC5COC6(CCCCC6(C)C)OC5C(O)C4O)C(O)C3O)cc2)NC1=O (stereo not drawn) [Example 205, Cyclo[glycyl-β-methylphenylalanyl-O-[4-O-[4,6-O-(2,2-dimethylcyclohexylidene)hexopyranosyl]hexopyranosyl]tyrosyl-3-(2-iminoimidazolidin-4-yl)seryl-3-(3-hexopyranosyl-2-iminoimidazolidin-4-yl)serylseryl]]
Enterococcus sp.; Enterococcus avium (GC 4558)
  MIC Enterococcus avium (GC 4558): 4 µg/mL (≈ 2.85 µM)
Enterococcus sp.; [1]
  MIC Enterococcus faecalis (ATCC 29212): 2 µg/mL (≈ 1.43 µM)
Enterococcus sp.; [2]
  MIC Enterococcus faecalis (GC 2242): 4 µg/mL (≈ 2.85 µM)
Enterococcus sp.; [3]
  MIC Enterococcus faecalis (GC 2691): 4 µg/mL (≈ 2.85 µM)
Enterococcus sp.; Enterococcus faecalis (GC 3059)
  MIC Enterococcus faecalis (GC 3059): 2 µg/mL (≈ 1.43 µM)
Enterococcus sp.; Enterococcus faecalis (GC 4552)
  MIC Enterococcus faecalis (GC 4552): 4 µg/mL (≈ 2.85 µM)
Enterococcus sp.; [4]
  MIC Enterococcus faecalis (GC 4553): 2 µg/mL (≈ 1.43 µM)
Enterococcus sp.; [5]
  MIC Enterococcus faecalis (GC 4554): 4 µg/mL (≈ 2.85 µM)
Enterococcus sp.; [6]
  MIC Enterococcus faecalis (GC 6189): 2 µg/mL (≈ 1.43 µM)
Enterococcus sp.; Enterococcus faecium (GC 2243)
  MIC Enterococcus faecium (GC 2243): 2 µg/mL (≈ 1.43 µM)
Enterococcus sp.; Enterococcus faecium (GC 4556)
  MIC Enterococcus faecium (GC 4556): 2 µg/mL (≈ 1.43 µM)
Enterococcus sp.; Enterococcus faecium (GC 4557)
  MIC Enterococcus faecium (GC 4557): 4 µg/mL (≈ 2.85 µM)
Enterococcus sp.; [7]
  MIC Enterococcus avium (GC 4558): 4 µg/mL (≈ 2.85 µM)
  MIC Enterococcus faecalis (ATCC 29212): 2 µg/mL (≈ 1.43 µM)
  MIC Enterococcus faecalis (GC 2242): 4 µg/mL (≈ 2.85 µM)
  MIC Enterococcus faecalis (GC 2691): 4 µg/mL (≈ 2.85 µM)
  MIC Enterococcus faecalis (GC 3059): 2 µg/mL (≈ 1.43 µM)
  MIC Enterococcus faecalis (GC 4552): 4 µg/mL (≈ 2.85 µM)
  MIC Enterococcus faecalis (GC 4553): 2 µg/mL (≈ 1.43 µM)
  MIC Enterococcus faecalis (GC 4554): 4 µg/mL (≈ 2.85 µM)
  MIC Enterococcus faecalis (GC 6189): 2 µg/mL (≈ 1.43 µM)
  MIC Enterococcus faecium (GC 2243): 2 µg/mL (≈ 1.43 µM)
  MIC Enterococcus faecium (GC 4556): 2 µg/mL (≈ 1.43 µM)
  MIC Enterococcus faecium (GC 4557): 4 µg/mL (≈ 2.85 µM)
Escherichia coli
  MIC Escherichia coli (ATCC 25922): 64 µg/mL (≈ 45.6 µM)
  MIC Escherichia coli (GC 4560): 1 µg/mL (≈ 0.713 µM)
Staphylococcus sp.; strain ATCC 29213
  MIC Staphylococcus aureus (ATCC 29213): 2 µg/mL (≈ 1.43 µM)
Staphylococcus sp.; strain GC 1131
  MIC Staphylococcus aureus (GC 1131): 2 µg/mL (≈ 1.43 µM)
Staphylococcus sp.; strain GC 3051
  MIC Staphylococcus aureus (GC 3051): 2 µg/mL (≈ 1.43 µM)
Staphylococcus sp.; strain GC 3053
  MIC Staphylococcus aureus (GC 3053): 2 µg/mL (≈ 1.43 µM)
Staphylococcus sp.; strain GC 4541
  MIC Staphylococcus aureus (GC 4541): 2 µg/mL (≈ 1.43 µM)
Staphylococcus sp.; strain GC 4542
  MIC Staphylococcus aureus (GC 4542): 2 µg/mL (≈ 1.43 µM)
Staphylococcus sp.; strain GC 4543
  MIC Staphylococcus aureus-SMITH (GC 4543): 2 µg/mL (≈ 1.43 µM)
Staphylococcus sp.; strain GC 4544
  MIC Staphylococcus aureus (GC 4544): 2 µg/mL (≈ 1.43 µM)
Staphylococcus sp.; strain GC 4545
  MIC Staphylococcus aureus (GC 4545): 2 µg/mL (≈ 1.43 µM)
Staphylococcus sp.; strain GC 4546
  MIC Staphylococcus haemolyticus (GC 4546): 2 µg/mL (≈ 1.43 µM)
Staphylococcus sp.; strain GC 4547
  MIC Coagulase Negative Staphylococcus (GC 4547): 2 µg/mL (≈ 1.43 µM)
Staphylococcus sp.; strain GC 4548
  MIC Coagulase Negative Staphylococcus (GC 4548): 1 µg/mL (≈ 0.713 µM)
Staphylococcus sp.; strain GC 4549
  MIC Coagulase Negative Staphylococcus (GC 4549): 1 µg/mL (≈ 0.713 µM)
Staphylococcus sp.; strain GC 4551
  MIC Coagulase Negative Staphylococcus (GC 4551): 2 µg/mL (≈ 1.43 µM)
Streptococcus sp.; [8]
  MIC Streptococcus agalactiae (GC 4564): <0.12 µg/mL
Streptococcus sp.; [9]
  MIC Streptococcus pneumoniae (ATCC 6301): <0.12 µg/mL
Streptococcus sp.; [10]
  MIC Streptococcus pneumoniae (GC 1894): <0.12 µg/mL
Streptococcus sp.; Streptococcus pneumoniae (GC 4565)
  MIC Streptococcus pneumoniae (GC 4565): <0.12 µg/mL
Streptococcus sp.; [11]
  MIC Streptococcus pyogenes (GC 4563): <0.12 µg/mL
Streptococcus sp.; [7]
  MIC Streptococcus agalactiae (GC 4564): <0.12 µg/mL
  MIC Streptococcus pneumoniae (ATCC 6301): <0.12 µg/mL
  MIC Streptococcus pneumoniae (GC 1894): <0.12 µg/mL
  MIC Streptococcus pneumoniae (GC 4565): <0.12 µg/mL
  MIC Streptococcus pyogenes (GC 4563): <0.12 µg/mL

## CC(c1ccccc1)C1NC(=O)CNC(=O)C(CO[Si](C)(C)C(C)(C)C)NC(=O)C(C(O)C2CNC(=N)N2C2OC3COC(C)(C)OC3C3OC(C)(C)OC32)NC(=O)C(C(O)C2CNC(=N)N2)NC(=O)C(Cc2ccc(O)cc2)NC1=O (stereo not shown) [Example 248]
Enterococcus sp.; Enterococcus avium (GC 4558)
  MIC Enterococcus avium (GC 4558): 8 µg/mL (≈ 6.86 µM)
Enterococcus sp.; [1]
  MIC Enterococcus faecalis (ATCC 29212): 64 µg/mL (≈ 54.9 µM)
Enterococcus sp.; [2]
  MIC Enterococcus faecalis (GC 2242): 64 µg/mL (≈ 54.9 µM)
Enterococcus sp.; [3]
  MIC Enterococcus faecalis (GC 2691): 32 µg/mL (≈ 27.5 µM)
Enterococcus sp.; [4]
  MIC Enterococcus faecalis (GC 4553): 16 µg/mL (≈ 13.7 µM)
Enterococcus sp.; [5]
  MIC Enterococcus faecalis (GC 4554): 64 µg/mL (≈ 54.9 µM)
Enterococcus sp.; [6]
  MIC Enterococcus faecalis (GC 6189): 32 µg/mL (≈ 27.5 µM)
Enterococcus sp.; Enterococcus faecium (GC 2243)
  MIC Enterococcus faecium (GC 2243): 32 µg/mL (≈ 27.5 µM)
Enterococcus sp.; Enterococcus faecium (GC 4556)
  MIC Enterococcus faecium (GC 4556): 32 µg/mL (≈ 27.5 µM)
Enterococcus sp.; Enterococcus faecium (GC 4557)
  MIC Enterococcus faecium (GC 4557): 16 µg/mL (≈ 13.7 µM)
Escherichia coli
  MIC Escherichia coli (ATCC 25922): 64 µg/mL (≈ 54.9 µM)
  MIC Escherichia coli (GC 4560): 8 µg/mL (≈ 6.86 µM)
Escherichia coli; Escherichia coli (GC 4559)
  MIC Escherichia coli (GC 4559): 64 µg/mL (≈ 54.9 µM)
Staphylococcus sp.; Coagulase Negative Staphylococcus (GC 4547), 18 hours at 35° C.
  MIC Coagulase Negative Staphylococcus (GC 4547): 16 µg/mL (≈ 13.7 µM)
Staphylococcus sp.; Coagulase Negative Staphylococcus (GC 4548), 18 hours at 35° C.
  MIC Coagulase Negative Staphylococcus (GC 4548): 32 µg/mL (≈ 27.5 µM)
Staphylococcus sp.; Coagulase Negative Staphylococcus (GC 4549), 18 hours at 35° C.
  MIC Coagulase Negative Staphylococcus (GC 4549): 32 µg/mL (≈ 27.5 µM)
Staphylococcus sp.; Coagulase Negative Staphylococcus (GC 4551), 18 hours at 35° C.
  MIC Coagulase Negative Staphylococcus (GC 4551): 32 µg/mL (≈ 27.5 µM)
Staphylococcus sp.; Coagulase Negative Staphylococcus (GC 6257), 18 hours at 35° C.
  MIC Coagulase Negative Staphylococcus (GC 6257): 16 µg/mL (≈ 13.7 µM)
Staphylococcus sp.; Staphylococcus aureus (ATCC 29213), 18 hours at 35° C.
  MIC Staphylococcus aureus (ATCC 29213): 32 µg/mL (≈ 27.5 µM)
Staphylococcus sp.; Staphylococcus aureus (GC 1131), 18 hours at 35° C.
  MIC Staphylococcus aureus (GC 1131): 32 µg/mL (≈ 27.5 µM)
Staphylococcus sp.; Staphylococcus aureus (GC 3051), 18 hours at 35° C.
  MIC Staphylococcus aureus (GC 3051): 64 µg/mL (≈ 54.9 µM)
Staphylococcus sp.; Staphylococcus aureus (GC 3053), 18 hours at 35° C.
  MIC Staphylococcus aureus (GC 3053): 64 µg/mL (≈ 54.9 µM)
Staphylococcus sp.; Staphylococcus aureus (GC 4541), 18 hours at 35° C.
  MIC Staphylococcus aureus (GC 4541): 32 µg/mL (≈ 27.5 µM)
Staphylococcus sp.; Staphylococcus aureus (GC 4542), 18 hours at 35° C.
  MIC Staphylococcus aureus (GC 4542): 64 µg/mL (≈ 54.9 µM)
Staphylococcus sp.; Staphylococcus aureus (GC 4544), 18 hours at 35° C.
  MIC Staphylococcus aureus (GC 4544): 32 µg/mL (≈ 27.5 µM)
Staphylococcus sp.; Staphylococcus aureus (GC 4545), 18 hours at 35° C.
  MIC Staphylococcus aureus (GC 4545): 32 µg/mL (≈ 27.5 µM)
Staphylococcus sp.; Staphylococcus aureus-SMITH (GC 4543), 18 hours at 35° C.
  MIC Staphylococcus aureus-SMITH (GC 4543): 32 µg/mL (≈ 27.5 µM)
Staphylococcus sp.; Staphylococcus haemolyticus (GC 4546), 18 hours at 35° C.
  MIC Staphylococcus haemolyticus (GC 4546): 16 µg/mL (≈ 13.7 µM)
Streptococcus sp.; [8]
  MIC Streptococcus agalactiae (GC 4564): 64 µg/mL (≈ 54.9 µM)
Streptococcus sp.; [9]
  MIC Streptococcus pneumoniae (ATCC 6301): 64 µg/mL (≈ 54.9 µM)
Streptococcus sp.; [10]
  MIC Streptococcus pneumoniae (GC 1894): 64 µg/mL (≈ 54.9 µM)
Streptococcus sp.; [11]
  MIC Streptococcus pyogenes (GC 4563): 32 µg/mL (≈ 27.5 µM)
